{"source": "paper PMC8002023", "about": "“3D Pharmacophore-Based Discovery of Novel KV10.1 Inhibitors with Antiproliferative Activity” (Cancers, 2021)", "key": {"[1]": {"system": "Salmonella typhimurium strain TA100", "assay": "Salmonella/microsomal reverse mutation (Ames) assay, TA100", "set-up": "key to bacterial background lawn: slightly reduced bacterial background; moderately reduced bacterial background; extremely reduced bacterial background; bacterial background is absent", "conditions": "for mutagenic response: TA100, 0.0158–0.158 mg/plate, −S9 and +S9; for cytotoxic concentration to bacterial strain: TA100, −/+ S9 metabolic activation; for induction factor (IF): IF ≥ 2 positive", "procedure": "Mutagenicity of compounds ZVS-08 and 8 was tested with the Salmonella/microsomal reverse mutation (Ames) assay on Salmonella typhimurium strains TA98 and TA100 without and with external metabolic activation according to the OECD guidelines (OECD TG 471) with minor modifications. Briefly, 100 µL of ZVS-08 and 8 (0.158, 0.5, 1.58, 5, 15.8, and 50 mg/mL corresponding to the final concentration of 0.0158, 0.05, 0.158, 0.5, 1.58, and 5 mg/plate, respectively), […] bacterial culture of S. typhimurium (overnight culture at 37 °C), and […] of phosphate buffer (for assays without metabolic activation) or 10% S9 mix (for assays with metabolic activation) were added to 2 mL of molten top agar (supplemented with histidine/biotin, final concentration 0.05 mM), gently mixed and poured onto minimal agar plates. The number of His+ revertants was counted after 48 h (TA100) and 72 h (TA98) of incubation at 37 °C. Three plates were used per treatment point. The mutagenic potential of the compounds was expressed as an induction factor (IF), where IF = (number of revertants in the presence of the compound)/(number of revertants in solvent control). Additionally, each plate was checked for possible toxic effects of tested compounds. […] 4-nitroquinoline- N-oxide (4-NQNO; 0.25 μg/plate) for TA98 and sodium azide (NaN3; 0.25 μg/plate) for TA100 were used as positive controls without S9 metabolic activation, while benzo[a]pyrene (B[a]P; 2.5 μg/plate) was used as positive controls for both bacterial strains with S9 metabolic activation."}, "[2]": {"system": "Colo357 tumour spheroids", "assay": "Apoptosis (caspase 3/7 reporter) in tumour spheroids", "type": "cell-based", "conditions": "50 µM, caspase reporter fluorescence over 72 h, 8.9 µM cycloheximide as sensitizer", "procedure": "Spheroids were cultured in round bottom ultra-low attachment 96-well plates (Corning) at a density of 5000 cells/well in 2% Matrigel (Corning) and centrifuged at 1000× g for 10 min. Spheroid formation was monitored continuously in the Incucyte system and treatments were added once spheroids were formed. As apoptosis sensitizer, 8.9 µM cycloheximide was added to controls and treated spheroids. Caspase 3/7 green reagent (Sartorius; 1:1000) was used as recommended by the manufacturer. Caspase 3/7 reagent substrate crosses the cell membrane and its cleavage by activated caspase-3/7 results in the release of a DNA dye and fluorescent staining of nuclear DNA.\nTo test the ability of the compounds to inhibit tumour progression in a more predictive system, we performed experiments on tumour spheroids of the pancreatic cancer cell line Colo357, which grows efficiently in this culture modality. The cells were seeded in the presence of Matrigel (see methods), allowed to form spheroids, and the compounds (50 µM) were added to the growth medium. The control contained the same amount of the vehicle (0.5% DMSO). Apoptosis was monitored by addition of a fluorescent […] activity reporter at the same time as the compounds. Cleavage of the reporter by caspase results in green florescence, and the intensity of the fluorescence was recorded over 72 h."}, "[3]": {"system": "MCF-7 cells", "assay": "Cell growth in 2D culture (Incucyte confluence, 72 h), MCF-7", "type": "cell-based", "conditions": "for IC50: high KV10.1 and low hERG expression", "procedure": "Cell lines MCF-7 (DSMZ ACC 115), PANC-1 (DSMZ ACC 783), and hTERT-RPE1 (ATCC CRL 4000) were grown in the media recommended by the cell provider in a humidified atmosphere at 5% CO2 and 37 °C. For cell growth experiments, 10^4 cells/well were seeded in 96-well flat bottom culture plates (Corning) and allowed to grow for 24 h. The compounds were then added in the corresponding growth medium, and the plate was imaged every hour for 72 h (two images per well and eight wells per condition in two independent experiments for compound 8 and five for ZVS-08 and compound 1) in an Incucyte system (Sartorius/Essen biosciences). Culture confluence was determined in the phase contrast images and is expressed as percent confluence per well. The growth was then normalised to the value in the absence of compounds.\nKV10.1 inhibitors with a favourable pharmacological profile are promising candidates for cancer therapy. To investigate the activity of the new compounds on cancer cells proliferation, compounds ZVS-08, 1 and 8 were tested on MCF-7, a breast cancer cell line showing high KV10.1 expression and low hERG expression, and on Panc1, a pancreatic cancer cell line with undetectable KV10.1 expression and high level of hERG expression. hTERT-RPE1 cells served as a non-cancer cell line. hTERT-RPE1 cells show transient physiological expression of Kv10.1 that begins during the G2 phase of the cell cycle and extends through mitosis as present in normal cells. Different concentrations of the compounds were added to the culture medium and the growth of the cell was monitored over 72 h (Figure 14)."}}, "note": "“Also recorded” adds a separate entry of the source.", "data": [{"smiles": "O=[N+]([O-])c1cc(C(F)(F)F)ccc1Nc1ccc(OCC(O)CN2CCOCC2)cc1", "note": "(centres unmarked) [Compound 8]", "values": [{"measurement": "mutagenic response", "setting": "[1]", "value": "no mutagenic response"}, {"measurement": "cytotoxic concentration to bacterial strain", "setting": "[1]", "value": "≥ 0.5", "unit": "mg/plate"}, {"measurement": "apoptosis induction in tumour spheroids", "setting": "[2]", "value": "apoptosis statistically significant over the control starting only after 24 h"}, {"measurement": "effect on growth of MCF-7 cells", "setting": "[3]; concentrations tested", "value": "ineffective; also recorded: inactive"}]}, {"smiles": "CN(C)CC(O)COc1ccc(Nc2ccc(C(F)(F)F)cc2[N+](=O)[O-])cc1", "note": "(centres unmarked) [ZVS-08]", "values": [{"measurement": "mutagenic response", "setting": "[1]", "value": "no mutagenic response"}, {"measurement": "Average number of revertant colonies (mean ± SD)", "setting": "[1]; TA100, +S9, 0.0158 mg/plate", "value": "102.67 ± 15.01"}, {"measurement": "induction factor (IF)", "setting": "[1]; TA100, +S9, 0.0158 mg/plate", "value": 1.02}, {"measurement": "Average number of revertant colonies (mean ± SD)", "setting": "[1]; TA100, +S9, 0.05 mg/plate", "value": "81.67 ± 14.57"}, {"measurement": "induction factor (IF)", "setting": "[1]; TA100, +S9, 0.05 mg/plate", "value": 0.81}, {"measurement": "Average number of revertant colonies (mean ± SD)", "setting": "[1]; TA100, +S9, 0.158 mg/plate", "value": "71.00 ± 7.21"}, {"measurement": "bacterial background lawn", "setting": "[1]; TA100, +S9, 0.158 mg/plate", "value": "a"}, {"measurement": "induction factor (IF)", "setting": "[1]; TA100, +S9, 0.158 mg/plate", "value": 0.71}, {"measurement": "Average number of revertant colonies (mean ± SD)", "setting": "[1]; TA100, +S9, 0.5 mg/plate", "value": 0}, {"measurement": "bacterial background lawn", "setting": "[1]; TA100, +S9, 0.5 mg/plate", "value": "b"}, {"measurement": "Average number of revertant colonies (mean ± SD)", "setting": "[1]; TA100, +S9, 1.58 mg/plate", "value": 0}, {"measurement": "bacterial background lawn", "setting": "[1]; TA100, +S9, 1.58 mg/plate", "value": "d"}, {"measurement": "Average number of revertant colonies (mean ± SD)", "setting": "[1]; TA100, +S9, 5 mg/plate", "value": 0}, {"measurement": "bacterial background lawn", "setting": "[1]; TA100, +S9, 5 mg/plate", "value": "d"}, {"measurement": "Average number of revertant colonies (mean ± SD)", "setting": "[1]; TA100, -S9, 0.0158 mg/plate", "value": "114.00 ±2.00"}, {"measurement": "induction factor (IF)", "setting": "[1]; TA100, -S9, 0.0158 mg/plate", "value": 1.29}, {"measurement": "Average number of revertant colonies (mean ± SD)", "setting": "[1]; TA100, -S9, 0.05 mg/plate", "value": "99.67 ± 16.80"}, {"measurement": "induction factor (IF)", "setting": "[1]; TA100, -S9, 0.05 mg/plate", "value": 1.12}, {"measurement": "Average number of revertant colonies (mean ± SD)", "setting": "[1]; TA100, -S9, 0.158 mg/plate", "value": "81.00 ± 5.29"}, {"measurement": "bacterial background lawn", "setting": "[1]; TA100, -S9, 0.158 mg/plate", "value": "a"}, {"measurement": "induction factor (IF)", "setting": "[1]; TA100, -S9, 0.158 mg/plate", "value": 0.91}, {"measurement": "Average number of revertant colonies (mean ± SD)", "setting": "[1]; TA100, -S9, 0.5 mg/plate", "value": 0}, {"measurement": "bacterial background lawn", "setting": "[1]; TA100, -S9, 0.5 mg/plate", "value": "c"}, {"measurement": "Average number of revertant colonies (mean ± SD)", "setting": "[1]; TA100, -S9, 1.58 mg/plate", "value": 0}, {"measurement": "bacterial background lawn", "setting": "[1]; TA100, -S9, 1.58 mg/plate", "value": "d"}, {"measurement": "Average number of revertant colonies (mean ± SD)", "setting": "[1]; TA100, -S9, 5 mg/plate", "value": 0}, {"measurement": "bacterial background lawn", "setting": "[1]; TA100, -S9, 5 mg/plate", "value": "d"}, {"measurement": "cytotoxic concentration to bacterial strain", "setting": "[1]", "value": "≥ 0.5", "unit": "mg/plate"}, {"measurement": "apoptosis induction in tumour spheroids", "setting": "[2]", "value": "induced apoptosis efficiently starting very early"}, {"measurement": "IC50", "setting": "[3]; Homo sapiens, MCF7, 72 h", "value": 6.8, "unit": "µM"}, {"measurement": "IC50", "setting": "[3]", "value": "~5", "unit": "µM"}]}]}
